In article PMC11224359, “Stable peptide-assembled nanozyme mimicking dual antifungal actions” (Nature Communications, 2024):
Read-outs that look alike come from different tables or passages of the source. Starred links: 1 amine or outer side, 2 acyl side, 3 side chain; linkers in the order of their positions; H or OH if unused. Positions of bridges follow the written chain, without caps; N, C: chain ends. Non-standard residues stand in square brackets, D forms with d. Residues, ends and D or L forms follow the SMILES beside them. No end group written: not given here. *: point of attachment. hTyr(3S-OH,4S-OH,3'-OSO3H) = N[C@H](C(=O)O)[C@H](O)[C@@H](O)c1ccc(O)c(OS(=O)(=O)O)c1; pTerphenylCO(4''-OnC5H11) = CCCCCOc1ccc(-c2ccc(-c3ccc(C(=O)*)cc3)cc2)cc1; Orn(4R-OH,5R-OH) = O=C([C@H](C[C@@H](O)[C@@H](O)N[*:3])N[*:1])[*:2]; hTyr(3S-OH,4S-OH) = N[C@H](C(=O)O)[C@H](O)[C@@H](O)c1ccc(O)cc1; Pro(3S-OH,4S-Me) = C[C@H]1CN[C@H](C(=O)O)[C@H]1O; X1 = CCCCCOc1ccc(-c2cc(-c3ccc(C(=O)*)cc3)no2)cc1; Gln(3R-OH) = NC(=O)C[C@@H](O)[C@H](N)C(=O)O; Hyp = O=C(O)[C@@H]1C[C@@H](O)CN1

Tests used:
[1] = tested on: C. albicans (ATCC10231, ATCC90028, ATCC90029); set-up: key: R: resistant; S: susceptible; DD-S: Dose dependent-susceptible; conditions: ref ATCC; cited from earlier work
Excerpt: […] T h re e times each experiment was repeated independently with similar results. Representative images are shown. (1 picture or pasted object on this page, not shown here)

E. coli (CMCC(B)44102) = assay: Antibacterial activity, colony counting; assay type: cell-based, Escherichia coli
Procedure: (§1) The antibacterial effects of Ni-IH-7 were also evaluated with E. coli (CMCC(B)44102), S. aureus (ATCC 29213) and Methicillin-resistant Staphylococcus aureus (MRSA) (ATCC43300), G. vaginalis (ATCC14018) and metronidazole-resistant G. vaginalis (provided by Xishan People’s Hospital of Wuxi City) under the similar procedures as those for C. albicans. Initially, E. coli, S. aureus and MRSA stored at -80°C were thawed and inoculated into Luria-Bertani liquid culture medium for overnight shaking. The culture volume was 5 mL, and the incubation conditions were set at 37°C in an air incubator. The next day, E. coli, S. aureus and MRSA were transferred to fresh culture medium and incubated for 2 h to activate the bacteria. The inoculum was approximately 10^5-6 CFU mL^−1. The culture volume was 10 mL, and the conditions were maintained at 37 °C in an air incubator. The quantities of E. coli, S. aureus and MRSA could reach 10^7-8 CFU mL^−1. Mixtures of 100 µL of E. coli, S. aureus and MRSA with 100 µL of Ni-IH-7 solution were prepared in 800 µL of sterile water and incubated for 0–6 h. Subsequently, 100 µL of different dilutions of the mixture were evenly spread on Luria-Bertani agar plates, followed by incubation at 37 °C from 24 to 48 h, and colony counting assay was performed to determine antibacterial efficiency. Similarly, G. vaginalis stored at −80°C was thawed and inoculated into brain-heart infusion (BHI) medium. This BHI medium consisted of brain/heart infusion broth containing 1% gelatin, 1% yeast extract, 0.1% soluble starch, 0.1% glucose, and 10% fetal bovine serum, and the inoculation process occurred overnight. The volume of the medium used was 5 mL, and the incubation condition was set at 37 °C in an incubator with 5% CO2. Following an overnight incubation post-inoculation, the necessary amount of bacterial solution was taken and transferred into fresh medium at a ratio of 1:25. This fresh medium was then cultured at 37°C with 5% CO2 for 6–8 h until the OD600 reached approximately 0.5. Next, an appropriate quantity of the bacterial inoculum was centrifuged at 4300 × g for 5 min at 4 °C to replace the bacteria from the culture medium with an equivalent volume of sterile water. For the experimental setup, 100 µL of G. vaginalis was mixed with 900 µL of sterile water as the control group. In the experimental group, 100 µL of G. vaginalis was mixed with either Ni-IH-7 solutions, Ni(Ac)2, or metronidazole in 800 µL of sterile water. The colony counting assay was performed to determine antibacterial efficiency.

[2] = PLC-like activity (PLC activity Assay Kit); assay type: biochemical
Procedure: To detect POD-like activity, 140 µL of sodium acetate buffer (pH 4.5, 0.2 M), 20 µL of 10 mM TMB, 20 µL of 1.5 mM Ni-IH-7 or 1.5 mM 4H2O·Ni(Ac)2, and 20 µL of H2O2 (50 mM) were added in order and reacted for 2 h at 37 °C. Absorbance at 652 nm was monitored using a microplate reader. PLC activity Assay Kit was used to detect PLC-like activity.

S. aureus (ATCC 29213) = assay: Antibacterial activity, colony counting; assay type: cell-based, Staphylococcus aureus
Procedure: as §1

G. vaginalis (ATCC14018) = assay: Antibacterial activity, colony counting; assay type: cell-based, Gardnerella vaginalis
Procedure: as §1

[3] = Variable temperature circular dichroism; assay type: physicochemical
Procedure: The Ultraviolet-visible (UV-VIS) spectroscopy of samples were collected by a Shimadzu UV-3600. For FTIR, 3 mg of powdered sample and 50 mg of potassium bromide (KBr) were mixed for tablet compression analysis with transmittance at 400–4000 cm^−1, collected using an iS10 FTIR spectrometer (USA). Measurements were performed by averaging 32 scans at 4-cm^−1 resolution (signal-to-noise ratio (S/N) = 50,000). The single-molecule STM imaging experiments were performed under ambient conditions by using a Nanoscope IIIa SPM system (Bruker, USA). 10 μL of the peptide solution was incubated on the surface of freshly cleaved highly oriented pyrolytic graphite (HOPG) at room temperature for 20 min. Then the excess peptide solution was removed from the substrate surface. The STM tips were mechanically made by Ir/Pt wires (20/80). Different STM tips and samples were used in these imaging experiments to ensure reproducibility. […] Zeta potentials of samples were determined using a Zetasizer Nano ZS90 (England) via three tests in a 1-mL sample cell. All CD datum were collected using Chirascan Plus (England) and analyzed at 190-260 nm. […] Pyridine infrared (IR) were measured at 1400–1700 cm^−1 using Thermo Scientific Nicolet 380 (USA). […] The fluorescence signals (I374nm, I394nm) were collected for detecting CMC using the pyrene probe under excitation at 330 nm across various concentrations of peptides.

[4] = 25 μg mL-1, in sterile water, replicate 1 of n = 3
[5] = 25 μg mL-1, in sterile water, replicate 2 of n = 3
[6] = 25 μg mL-1, in sterile water, replicate 3 of n = 3
[7] = 50 μg mL-1, in sterile water, replicate 1 of n = 3
[8] = 50 μg mL-1, in sterile water, replicate 2 of n = 3
[9] = 50 μg mL-1, in sterile water, replicate 3 of n = 3
[10] = 100 μg mL-1, in sterile water, replicate 1 of n = 3
[11] = 100 μg mL-1, in sterile water, replicate 2 of n = 3
[12] = 100 μg mL-1, in sterile water, replicate 3 of n = 3

Compound: Nc1nc(=O)[nH]cc1F [5-Flucytosine]
- resistance degree of C. albicans ATCC 10231 [1]: S
- resistance degree of C. albicans ATCC 90028 [1]: S
- resistance degree of C. albicans ATCC 90029 [1]: R

Compound: CCCCCOc1ccc(-c2ccc(-c3ccc(C(=O)N[C@H]4C[C@@H](O)[C@@H](O)NC(=O)[C@@H]5[C@@H](O)[C@@H](C)CN5C(=O)[C@H]([C@@H](C)O)NC(=O)[C@H]([C@H](O)[C@@H](O)c5ccc(O)cc5)NC(=O)[C@@H]5C[C@@H](O)CN5C(=O)[C@H]([C@@H](C)O)NC4=O)cc3)cc2)cc1 [Anidulafungin] ({pTerphenylCO(4''-OnC5H11)}-[Orn(4R-OH,5R-OH)]T[Hyp][hTyr(3S-OH,4S-OH)]T[Pro(3S-OH,4S-Me)]; lactam 1-C)
- resistance degree of C. albicans ATCC 10231 [1]: R
- resistance degree of C. albicans ATCC 90028 [1]: S
- resistance degree of C. albicans ATCC 90029 [1]: S

Compound: CC[C@H](C)C[C@H](C)CCCCCCCCC(=O)N[C@H]1C[C@@H](O)[C@@H](NCCN)NC(=O)[C@@H]2[C@@H](O)CCN2C(=O)[C@H]([C@H](O)CCN)NC(=O)[C@H]([C@H](O)[C@@H](O)c2ccc(O)cc2)NC(=O)[C@@H]2C[C@@H](O)CN2C(=O)[C@H]([C@@H](C)O)NC1=O [Caspofungin]
- resistance degree of C. albicans ATCC 10231 [1]: S
- resistance degree of C. albicans ATCC 90028 [1]: S
- resistance degree of C. albicans ATCC 90029 [1]: S

Compound: OC(Cn1cncn1)(Cn1cncn1)c1ccc(F)cc1F [Fluconazole]
- resistance degree of C. albicans ATCC 10231 [1]: R
- resistance degree of C. albicans ATCC 90028 [1]: S
- resistance degree of C. albicans ATCC 90029 [1]: S

Compound: CCC(C)n1ncn(-c2ccc(N3CCN(c4ccc(OCC5COC(Cn6cncn6)(c6ccc(Cl)cc6Cl)O5)cc4)CC3)cc2)c1=O (centres unmarked) [Itraconazole]
- resistance degree of C. albicans ATCC 10231 [1]: R
- resistance degree of C. albicans ATCC 90028 [1]: DD-S
- resistance degree of C. albicans ATCC 90029 [1]: S

Compound: CCCCCOc1ccc(-c2cc(-c3ccc(C(=O)N[C@H]4C[C@@H](O)[C@@H](O)NC(=O)[C@@H]5[C@@H](O)[C@@H](C)CN5C(=O)[C@H]([C@H](O)CC(N)=O)NC(=O)[C@H]([C@H](O)[C@@H](O)c5ccc(O)c(OS(=O)(=O)O)c5)NC(=O)[C@@H]5C[C@@H](O)CN5C(=O)[C@H]([C@@H](C)O)NC4=O)cc3)no2)cc1 [Micafungin] (X1-[Orn(4R-OH,5R-OH)]T[Hyp][hTyr(3S-OH,4S-OH,3'-OSO3H)][Gln(3R-OH)][Pro(3S-OH,4S-Me)]; lactam 1-C)
- resistance degree of C. albicans ATCC 10231 [1]: S
- resistance degree of C. albicans ATCC 90028 [1]: S
- resistance degree of C. albicans ATCC 90029 [1]: S

Compound: CC(=O)[O-].CC(=O)[O-].O.O.O.O.[Ni+2] [Ni2+, nickel acetate]
- Antimicrobial activity toward E. coli (Figure 7a) (E. coli (CMCC(B)44102); [4]): 6.041
- Antimicrobial activity toward E. coli (Figure 7a) (E. coli (CMCC(B)44102); [5]): 6.4456
- Antimicrobial activity toward E. coli (Figure 7a) (E. coli (CMCC(B)44102); [6]): 6.497
- Antimicrobial activity toward E. coli (Figure 7a) (E. coli (CMCC(B)44102); [7]): 5.633
- Antimicrobial activity toward E. coli (Figure 7a) (E. coli (CMCC(B)44102); [8]): 6.487
- Antimicrobial activity toward E. coli (Figure 7a) (E. coli (CMCC(B)44102); [9]): 6.525
- Antimicrobial activity toward E. coli (Figure 7a) (E. coli (CMCC(B)44102); [10]): 5.929
- Antimicrobial activity toward E. coli (Figure 7a) (E. coli (CMCC(B)44102); [11]): 6.479
- Antimicrobial activity toward E. coli (Figure 7a) (E. coli (CMCC(B)44102); [12]): 6.497
- PLC-like activity (Figure 5d) ([2]; replicate 1 of n = 3): 0.0001855
- PLC-like activity (Figure 5d) ([2]; replicate 2 of n = 3): 0.002181
- PLC-like activity (Figure 5d) ([2]; replicate 3 of n = 3): 0.003085
- Antimicrobial activity toward S. aureus (Figure 7b) (S. aureus (ATCC 29213); [4]): 7.5682
- Antimicrobial activity toward S. aureus (Figure 7b) (S. aureus (ATCC 29213); [5]): 6.875
- Antimicrobial activity toward S. aureus (Figure 7b) (S. aureus (ATCC 29213); [6]): 7.049
- Antimicrobial activity toward S. aureus (Figure 7b) (S. aureus (ATCC 29213); [7]): 7.146
- Antimicrobial activity toward S. aureus (Figure 7b) (S. aureus (ATCC 29213); [8]): 6.498
- Antimicrobial activity toward S. aureus (Figure 7b) (S. aureus (ATCC 29213); [9]): 7.364
- Antimicrobial activity toward S. aureus (Figure 7b) (S. aureus (ATCC 29213); [10]): 6.991
- Antimicrobial activity toward S. aureus (Figure 7b) (S. aureus (ATCC 29213); [11]): 7.161
- Antimicrobial activity toward S. aureus (Figure 7b) (S. aureus (ATCC 29213); [12]): 7.352
- Antimicrobial activity toward G. vaginalis (Figure 7c) (G. vaginalis (ATCC14018); 10 μg mL-1, in sterile water, replicate 1 of n = 3): 5.431
- Antimicrobial activity toward G. vaginalis (Figure 7c) (G. vaginalis (ATCC14018); 10 μg mL-1, in sterile water, replicate 2 of n = 3): 5.477
- Antimicrobial activity toward G. vaginalis (Figure 7c) (G. vaginalis (ATCC14018); 10 μg mL-1, in sterile water, replicate 3 of n = 3): 5.4624
- Antimicrobial activity toward G. vaginalis (Figure 7c) (G. vaginalis (ATCC14018); [7]): 5.826
- Antimicrobial activity toward G. vaginalis (Figure 7c) (G. vaginalis (ATCC14018); [8]): 5.602
- Antimicrobial activity toward G. vaginalis (Figure 7c) (G. vaginalis (ATCC14018); [9]): 5.74
- Antimicrobial activity toward G. vaginalis (Figure 7c) (G. vaginalis (ATCC14018); [10]): 5.13
- Antimicrobial activity toward G. vaginalis (Figure 7c) (G. vaginalis (ATCC14018); [11]): 5.041
- Antimicrobial activity toward G. vaginalis (Figure 7c) (G. vaginalis (ATCC14018); [12]): 5.1038

Compound: C[C@@H](c1ncncc1F)[C@](O)(Cn1cncn1)c1ccc(F)cc1F [Voriconazole]
- resistance degree of C. albicans ATCC 10231 [1]: S
- resistance degree of C. albicans ATCC 90028 [1]: S
- resistance degree of C. albicans ATCC 90029 [1]: S

Compound: IHIHICI [IH-7]
- thermal stability of conformation ([3]; variable temperature CD, 20–95 °C): changed from random coil at low temperature to α-helix at high temperature

Compound: IHIHICI [Ni-IH-7, peptide nanozyme]
- resistance to enzymatic degradation by neutral protease (neutral protease): considerable resistance to enzymatic degradation
- resistance to enzymatic degradation by snailase (snailase): considerable resistance to enzymatic degradation
- resistance to enzymatic degradation by lyticase (lyticase): considerable resistance to enzymatic degradation
- thermal stability of conformation [3]: retained β-sheet conformation
